Earlier results as cited in patent US20230071557A1, “STABLE PHARMACEUTICAL COMPOSITIONS OF ROPINIROLE” (ORION CORPORATION, priority 2020, published 2023).
Structures can show the parent of a compound that is named as a salt.

System: dogs
Details: aqueous eye drop solution comprising 10 or 40 mg/ml of ropinirole hydrochloride

For CCCN(CCC)CCc1cccc2c1CC(=O)N2 [ropinirole hydrochloride], the “Vomiting (emesis) in dogs” value is given as “produced vomiting rapidly and consistently”.
